Read-outs that look alike come from different tables or passages of the source.
Key:
[1] = target: T1, PfCRT^Ecu1110 (Plasmodium falciparum, UniProt Q9N623, A220S/I356L/K76T/N326D); assay: [3H]CQ uptake into Xenopus oocytes, cis-inhibition by unlabelled solute; assay type: cell-based
Procedure, shortened: (§1)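 Each treatment used ten oocytes, repeated in at least four experiments on different days with oocytes from different frogs. Conditions: ND96 pH 5.5, 27.5 °C, 1.5 h; read-out by scintillation counting.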

[2] = target: T2, PfCRT^Dd2 (Plasmodium falciparum, UniProt Q9N623, A220S/I356T/K76T/M74I/N326S/N75E/Q271E/R371I); assay: as above; assay type: cell-based
T2 sequence (Q9N623 whole entry A220S/I356T/K76T/M74I/N326S/N75E/Q271E/R371I): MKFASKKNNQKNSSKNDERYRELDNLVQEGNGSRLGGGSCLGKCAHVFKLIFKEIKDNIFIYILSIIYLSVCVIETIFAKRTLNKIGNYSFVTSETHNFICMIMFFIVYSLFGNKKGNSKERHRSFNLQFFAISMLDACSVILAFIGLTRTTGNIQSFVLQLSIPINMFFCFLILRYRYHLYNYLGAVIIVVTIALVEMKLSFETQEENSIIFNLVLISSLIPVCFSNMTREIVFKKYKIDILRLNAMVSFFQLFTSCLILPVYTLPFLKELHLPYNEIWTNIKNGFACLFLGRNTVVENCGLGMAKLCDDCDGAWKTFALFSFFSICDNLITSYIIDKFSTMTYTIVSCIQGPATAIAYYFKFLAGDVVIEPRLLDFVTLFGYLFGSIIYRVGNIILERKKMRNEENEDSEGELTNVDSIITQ
Procedure, shortened: as §1

[3] = tested on: PfCRT; assay: Influx of VF-6 via PfCRT into the oocyte, solutes tested as potential co-substrates; assay type: cell-based, Plasmodium falciparum; parameters: key: X: Compounds that have been tested as potential co-substrates but are not required for influx of VF-6 via PfCRT into the oocyte; settings: X marks the solute
[4] = tested on: non-expressing oocytes; assay: cells; assay type: cell-based, Xenopus laevis; settings: Xenopus laevis, Oocyte
Procedure, shortened: as §1

[5] = target: T1, PfCRT^Ecu1110; assay: cell-based; assay type: cell-based; settings: […]
Procedure, shortened: (§2)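 Oocytes (ten per treatment, ≥4 independent frogs/days) were preloaded by injecting VF-6 in 25 nL ND96 at pH 5.0, 5.5, 6.0 or 7.0, or Na^+-free choline buffer, then uptake run 1.5 h, 27.5 °C, ND96 pH 5.5 by default. Internal concentrations assumed ~400 nL oocyte volume.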

[6] = target: T3, PfCRT^3D7 (Plasmodium falciparum, UniProt Q8IBZ9); assay: cell-based; assay type: cell-based
T3 sequence (Q8IBZ9 59-398): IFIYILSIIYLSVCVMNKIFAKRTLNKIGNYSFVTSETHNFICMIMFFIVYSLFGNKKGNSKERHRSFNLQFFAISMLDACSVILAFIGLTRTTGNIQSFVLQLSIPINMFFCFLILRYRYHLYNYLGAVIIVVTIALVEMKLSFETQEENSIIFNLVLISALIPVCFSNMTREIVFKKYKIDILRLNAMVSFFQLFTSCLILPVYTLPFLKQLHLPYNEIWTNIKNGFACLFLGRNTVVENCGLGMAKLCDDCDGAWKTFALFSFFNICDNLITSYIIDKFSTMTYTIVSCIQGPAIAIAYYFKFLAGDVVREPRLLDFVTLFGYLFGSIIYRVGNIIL
Procedure, shortened: as §2

[7] = target: T4, PfNT1 (Plasmodium falciparum, UniProt Q8IDM6); assay: cell-based; assay type: cell-based; settings: for activity at 5000 µM: total [3H]CQ transport
T4 construct: expressed in transfected cells; host or cells: Xenopus laevis oocytes (stage V-VI), cRNA-injected
T4 sequence (Q8IDM6 whole entry): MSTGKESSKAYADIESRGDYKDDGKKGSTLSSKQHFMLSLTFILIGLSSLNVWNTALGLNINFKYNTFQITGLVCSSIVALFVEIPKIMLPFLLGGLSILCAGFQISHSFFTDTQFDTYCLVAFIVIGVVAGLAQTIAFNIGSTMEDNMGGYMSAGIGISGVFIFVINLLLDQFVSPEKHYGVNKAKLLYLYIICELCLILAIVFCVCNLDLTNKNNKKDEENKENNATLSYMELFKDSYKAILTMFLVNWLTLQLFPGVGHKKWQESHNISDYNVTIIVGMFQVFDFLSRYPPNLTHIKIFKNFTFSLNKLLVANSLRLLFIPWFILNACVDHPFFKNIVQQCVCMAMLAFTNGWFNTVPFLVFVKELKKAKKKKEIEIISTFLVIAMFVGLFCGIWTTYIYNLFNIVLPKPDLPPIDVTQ
Procedure, shortened: as §2

[8] = target: T2, PfCRT^Dd2; assay: cell-based; assay type: cell-based; settings: […]; for activity at 45000 µM: [test solute]i = 45 mM (30 mM for some solutes due to solubility)
Procedure, shortened: as §2

[9] = target: T3, PfCRT^3D7; assay: cell-based; assay type: cell-based; settings: total [3H]CQ transport; for inhibition at 500 µM: [test solute] = 0.5 mM; for inhibition at 1000 µM: [test solute] = 1 mM; for inhibition at 2000 µM: [test solute] = 2 mM
Procedure, shortened: as §1

[10] = tested on: PfCRT; assay: Potential co-substrates tested for influx of VF-6 via PfCRT into the oocyte; assay type: cell-based, Plasmodium falciparum; parameters: key: X: Compounds that have been tested as potential co-substrates but are not required for influx of VF-6 via PfCRT into the oocyte
[11] = tested on: non-expressing oocytes; assay type: cell-based, Xenopus laevis; settings: total [3H]CQ transport; for Uptake of [3H]CQ (% non-expressing oocyte control), trans-stimulation: non-expressing oocytes, normalised to the oocyte type control; for Uptake of [3H]CQ (% PfCRTDd2 control), trans-stimulation, non-expressing oocytes: mean ± SEM, SEM
Procedure, shortened: as §2

[12] = read-out: PfCRT-mediated [3H]CQ transport, cis-inhibition (% PfCRTEcu1110 control)
[13] = read-out: Uptake of [3H]CQ (% PfCRTDd2 control), cis-inhibition, PfCRTEcu1110, SEM
[14] = read-out: Uptake of [3H]CQ (% PfCRTEcu1110 control), cis-inhibition
[15] = read-out: [3H]CQ transport (% PfCRTEcu1110 control), cis-inhibition, PfCRTEcu1110, SEM
[16] = read-out: PfCRT-mediated [3H]CQ transport, cis-inhibition (% PfCRTDd2 control)
[17] = read-out: Uptake of [3H]CQ (% PfCRTDd2 control), cis-inhibition, PfCRTDd2, SEM
[18] = read-out: Uptake of [3H]CQ (% PfCRTDd2 control), cis-inhibition, non-expressing oocytes, SEM
[19] = read-out: Uptake of [3H]CQ (% non-expressing oocyte control), cis-inhibition
[20] = PfCRT3D7 oocytes, normalised to the oocyte type control, read-out: Uptake of [3H]CQ (% PfCRT3D7 control), cis-inhibition
[21] = mean ± SEM, SEM, read-out: Uptake of [3H]CQ (% PfCRTDd2 control), cis-inhibition, PfCRT3D7

T1 sequence (Q9N623 whole entry A220S/I356L/K76T/N326D): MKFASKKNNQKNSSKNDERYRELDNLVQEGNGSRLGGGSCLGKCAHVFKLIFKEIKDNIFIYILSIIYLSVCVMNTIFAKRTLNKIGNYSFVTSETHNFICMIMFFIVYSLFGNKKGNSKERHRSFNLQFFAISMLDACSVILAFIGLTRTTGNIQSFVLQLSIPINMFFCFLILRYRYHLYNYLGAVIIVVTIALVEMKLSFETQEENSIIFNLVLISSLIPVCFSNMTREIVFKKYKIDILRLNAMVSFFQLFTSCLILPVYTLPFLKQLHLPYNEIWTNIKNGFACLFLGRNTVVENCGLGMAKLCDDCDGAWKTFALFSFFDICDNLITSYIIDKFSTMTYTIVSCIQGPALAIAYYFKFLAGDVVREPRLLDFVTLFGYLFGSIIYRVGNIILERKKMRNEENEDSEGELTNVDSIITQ

NCCCC[C@H](N)C(=O)O [L-lysine]
inhibition at 500 µM [1, 12]: 93 ± 6.7%
inhibition at 1000 µM [1, 12]: 97 ± 5.2%
inhibition at 2000 µM [1, 12]: 96 ± 4.1%
inhibition at 500 µM [1, 13]: 31 ± 1.9%
inhibition at 1000 µM [1, 13]: 32 ± 1.8%
inhibition at 2000 µM [1, 13]: 32 ± 1%
inhibition at 500 µM [1, 14]: 95 ± 3.6%
inhibition at 1000 µM [1, 14]: 99 ± 4.6%
inhibition at 2000 µM [1, 14]: 98 ± 3.2%
inhibition at 500 µM [1, 15]: 28 ± 1.6%
inhibition at 1000 µM [1, 15]: 29 ± 0.2%
inhibition at 2000 µM [1, 15]: 29 ± 0.2%
inhibition at 500 µM [2, 16]: 93 ± 5.2%
inhibition at 1000 µM [2, 16]: 99 ± 3.6%
inhibition at 2000 µM [2, 16]: 95 ± 4.1%
inhibition at 500 µM [2, 17]: 96 ± 3.1%
inhibition at 1000 µM [2, 17]: 100 ± 2.8%
inhibition at 2000 µM [2, 17]: 97 ± 3.2%
Compounds that have been tested as potential co-substrates but are not required for influx of VF-6 via PfCRT into the oocyte [3]: X
inhibition at 500 µM [4, 18]: 2.9 ± 0.03%
inhibition at 1000 µM [4, 18]: 3.3 ± 0.07%
inhibition at 2000 µM [4, 18]: 3.3 ± 0.03%
inhibition at 500 µM [4, 19]: 101 ± 6.3%
inhibition at 1000 µM [4, 19]: 101 ± 3.6%
inhibition at 2000 µM [4, 19]: 100 ± 3.6%
activity at 5000 µM ([5]; pH 5.5, read-out: PfCRT-mediated [3H]CQ transport, trans-stimulation (% PfCRTEcu1110 control), [test solute]i = 5 mM (intracellular), PfCRTEcu1110 oocytes, normalised to oocyte type control): 95 ± 3.8%
activity at 5000 µM ([5]; pH 5.5, read-out: Uptake of [3H]CQ (% PfCRTEcu1110 control), trans-stimulation, PfCRTEcu1110 oocytes, [test solute]i = 5 mM, total [3H]CQ transport, normalised to the oocyte type control): 97 ± 4.4%
activity at 45000 µM ([5]; pH 5.5, read-out: Uptake of [3H]CQ (% PfCRTEcu1110 control), trans-stimulation, PfCRTEcu1110 oocytes, [test solute]i = 45 mM (30 mM for some solutes due to solubility), total [3H]CQ transport, normalised to the oocyte type control): 99 ± 4.2%
activity at 5000 µM ([5]; read-out: Uptake of [3H]CQ (% PfCRTDd2 control), trans-stimulation, PfCRTEcu1110, total [3H]CQ transport, [test solute]i = 5 mM (intracellular), mean ± SEM, SEM): 35 ± 1.8%
activity at 45000 µM ([5]; read-out: Uptake of [3H]CQ (% PfCRTDd2 control), trans-stimulation, PfCRTEcu1110, total [3H]CQ transport, [test solute]i = 45 mM (intracellular; 30 mM for some solutes due to solubility), mean ± SEM, SEM): 35 ± 1.6%
activity at 5000 µM ([6]; PfCRT3D7 oocytes, [test solute]i = 5 mM, total [3H]CQ transport, normalised to the oocyte type control, read-out: Uptake of [3H]CQ (% PfCRT3D7 control), trans-stimulation): 99 ± 3.7%
[3H]CQ transport (% PfCRT3D7 control), trans-stimulation, PfCRT3D7 ([6]; SEM): 0.3 ± 0.02 % PfCRT3D7 control
activity at 5000 µM ([6]; [test solute]i = 5 mM (intracellular), PfCRT3D7 oocytes, normalised to oocyte type control, read-out: PfCRT-mediated [3H]CQ transport, trans-stimulation (% PfCRT3D7 control)): 97 ± 2%
activity at 45000 µM ([6]; SEM, read-out: Uptake of [3H]CQ (% PfCRTDd2 control), trans-stimulation, PfCRT3D7): 3.3 ± 0.06%
activity at 45000 µM ([6]; read-out: PfCRT-mediated [3H]CQ transport, trans-stimulation (% PfCRT3D7 control)): 96 ± 1.9%
activity at 45000 µM ([6]; read-out: Uptake of [3H]CQ (% PfCRT3D7 control), trans-stimulation): 98 ± 2.4%
activity at 5000 µM ([6]; total [3H]CQ transport, [test solute]i = 5 mM (intracellular), mean ± SEM, SEM, read-out: Uptake of [3H]CQ (% PfCRTDd2 control), trans-stimulation, PfCRT3D7): 3.3 ± 0.05%
activity at 5000 µM ([7]; PfNT1 oocytes, [test solute]i = 5 mM, normalised to the oocyte type control, read-out: Uptake of [3H]CQ (% PfNT1 control), trans-stimulation): 100 ± 3.6%
activity at 45000 µM ([7]; SEM, read-out: Uptake of [3H]CQ (% PfCRTDd2 control), trans-stimulation, PfNT1): 2.8 ± 0.05%
activity at 45000 µM ([7]; read-out: Uptake of [3H]CQ (% PfNT1 control), trans-stimulation): 99 ± 3.7%
activity at 5000 µM ([7]; [test solute]i = 5 mM (intracellular), mean ± SEM, SEM, read-out: Uptake of [3H]CQ (% PfCRTDd2 control), trans-stimulation, PfNT1): 2.1 ± 0.01%
activity at 5000 µM ([8]; pH 5.5, read-out: PfCRT-mediated [3H]CQ transport, trans-stimulation (% PfCRTDd2 control), [test solute]i = 5 mM (intracellular), PfCRTDd2 oocytes, normalised to oocyte type control): 97 ± 3.4%
activity at 5000 µM ([8]; pH 5.5, read-out: Uptake of [3H]CQ (% PfCRTDd2 control), trans-stimulation, PfCRTDd2, total [3H]CQ transport, [test solute]i = 5 mM (intracellular), mean ± SEM, SEM): 99 ± 2.4%
activity at 5000 µM ([8]; pH 5.5, read-out: Uptake of [3H]CQ (% PfCRTDd2 control), trans-stimulation, PfCRTDd2 oocytes, [test solute]i = 5 mM, total [3H]CQ transport, normalised to the oocyte type control): 99 ± 2.4%
activity at 45000 µM ([8]; pH 5.5, read-out: Uptake of [3H]CQ (% PfCRTDd2 control), trans-stimulation, PfCRTDd2 oocytes, total [3H]CQ transport, normalised to the oocyte type control): 97 ± 3.2%
activity at 5000 µM ([8]; pH 5.5, read-out: [3H]CQ transport (% PfCRTDd2 control), trans-stimulation, PfCRTDd2, trans-stimulation, [test solute]i = 5 mM (injected), PfCRT-mediated component (background subtracted), mean ± SEM, SEM): 97 ± 3.4%
activity at 45000 µM ([8]; pH 5.5, read-out: [3H]CQ transport (% PfCRTDd2 control), trans-stimulation, PfCRTDd2, trans-stimulation, PfCRT-mediated component (background subtracted), mean ± SEM, SEM): 95 ± 4.5%
inhibition at 500 µM [9, 20]: 100 ± 4.8%
inhibition at 1000 µM [9, 20]: 101 ± 3.7%
inhibition at 2000 µM [9, 20]: 100 ± 4.7%
inhibition at 500 µM [9, 21]: 3.4 ± 0.07%
inhibition at 1000 µM [9, 21]: 3.3 ± 0.03%
inhibition at 2000 µM [9, 21]: 3.1 ± 0.07%
Tested as potential co-substrate but not required for influx of VF-6 via PfCRT into the oocyte [10]: X
Uptake of [3H]CQ (% non-expressing oocyte control), trans-stimulation ([11]; [test solute]i = 5 mM): 101 ± 3.2 % non-expressing oocyte control
Uptake of [3H]CQ (% non-expressing oocyte control), trans-stimulation ([11]; [test solute]i = 45 mM (30 mM for some solutes due to solubility)): 99 ± 3.2 % non-expressing oocyte control
Uptake of [3H]CQ (% PfCRTDd2 control), trans-stimulation, non-expressing oocytes ([11]; [test solute]i = 5 mM (intracellular)): 2.3 ± 0.03 % PfCRTDd2 control
Uptake of [3H]CQ (% PfCRTDd2 control), trans-stimulation, non-expressing oocytes ([11]; [test solute]i = 45 mM (intracellular; 30 mM for some solutes due to solubility)): 3.3 ± 0.03 % PfCRTDd2 control

Source: PMC7413254 (Nature Communications, 2020)
